The source of these data is ChEMBL document CHEMBL1125408 (J Med Chem, 1992).

Molecules are shown by their SMILES. Calls of active or inactive are those of the source.

Assay [1] is filed under the species Rattus norvegicus.
The target of assay [2] is T1, Acetylcholinesterase (Homo sapiens, UniProt P22303).
Description: The compound was evaluated for the inhibition of human Acetylcholinesterase
For assay [3], the target named is T2, Muscarinic acetylcholine receptor M1 (Mus musculus, UniProt P12657).
T2 sequence (P12657 whole entry): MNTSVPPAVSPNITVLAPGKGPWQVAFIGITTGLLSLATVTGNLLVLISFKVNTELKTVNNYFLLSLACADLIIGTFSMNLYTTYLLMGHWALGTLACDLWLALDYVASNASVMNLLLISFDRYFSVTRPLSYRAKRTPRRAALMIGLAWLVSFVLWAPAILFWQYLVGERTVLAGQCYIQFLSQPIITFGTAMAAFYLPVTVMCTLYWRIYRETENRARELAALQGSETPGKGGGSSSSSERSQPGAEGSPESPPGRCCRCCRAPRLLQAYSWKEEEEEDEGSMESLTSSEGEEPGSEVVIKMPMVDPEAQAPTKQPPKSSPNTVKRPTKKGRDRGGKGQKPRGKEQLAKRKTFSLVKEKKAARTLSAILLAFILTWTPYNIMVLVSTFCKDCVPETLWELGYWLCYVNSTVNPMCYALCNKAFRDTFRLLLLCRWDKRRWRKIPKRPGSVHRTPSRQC
Description: biochemical.
Description: Compound was evaluated for the competitive inhibition of [3H]pirenzepine binding to muscarinic acetylcholine receptor M1 of mouse cerebral cortex

In assay [4] the target is T3, Cholinesterase (Homo sapiens, UniProt P06276).
T3 sequence (P06276 whole entry): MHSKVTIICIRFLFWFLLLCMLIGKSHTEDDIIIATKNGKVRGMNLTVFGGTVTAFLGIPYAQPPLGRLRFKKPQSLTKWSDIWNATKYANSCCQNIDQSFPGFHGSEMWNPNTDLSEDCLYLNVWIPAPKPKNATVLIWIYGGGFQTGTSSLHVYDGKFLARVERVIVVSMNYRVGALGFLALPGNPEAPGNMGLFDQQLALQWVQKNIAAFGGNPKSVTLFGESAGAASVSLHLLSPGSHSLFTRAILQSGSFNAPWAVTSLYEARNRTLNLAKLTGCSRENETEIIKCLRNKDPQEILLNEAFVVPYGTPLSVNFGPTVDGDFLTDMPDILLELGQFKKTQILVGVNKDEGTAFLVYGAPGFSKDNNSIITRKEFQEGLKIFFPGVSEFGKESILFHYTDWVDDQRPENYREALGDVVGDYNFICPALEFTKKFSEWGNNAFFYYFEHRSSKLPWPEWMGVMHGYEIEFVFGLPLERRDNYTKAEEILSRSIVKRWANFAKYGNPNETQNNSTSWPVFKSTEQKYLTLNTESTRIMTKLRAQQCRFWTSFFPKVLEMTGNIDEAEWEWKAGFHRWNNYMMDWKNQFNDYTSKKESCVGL
Description: The compound was evaluated for the inhibition human of Butyrylcholinesterase
For assay [5], the target named is T4, Muscarinic acetylcholine receptor M2 (Mus musculus, UniProt Q9ERZ4).
T4 sequence (Q9ERZ4 whole entry): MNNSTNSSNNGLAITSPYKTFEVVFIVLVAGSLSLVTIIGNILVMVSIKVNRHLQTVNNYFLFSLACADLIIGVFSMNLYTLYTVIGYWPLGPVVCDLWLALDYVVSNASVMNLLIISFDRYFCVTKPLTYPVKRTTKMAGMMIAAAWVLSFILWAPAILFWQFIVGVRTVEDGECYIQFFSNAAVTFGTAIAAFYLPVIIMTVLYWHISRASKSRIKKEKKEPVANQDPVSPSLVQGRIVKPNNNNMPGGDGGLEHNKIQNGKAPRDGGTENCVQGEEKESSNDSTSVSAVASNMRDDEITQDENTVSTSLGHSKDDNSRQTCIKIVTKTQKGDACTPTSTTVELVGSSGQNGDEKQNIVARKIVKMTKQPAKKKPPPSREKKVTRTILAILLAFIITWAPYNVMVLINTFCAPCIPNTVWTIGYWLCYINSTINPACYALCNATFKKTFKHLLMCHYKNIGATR
The assay can be described thus: biochemical.
Description: Compound was evaluated for the competitive inhibition of [3H]methylscopolamine binding to muscarinic acetylcholine receptor M2 of mouse cerebral cortex

For assay [6], the target named is T3, Cholinesterase. Description: Ratio of IC50 values obtained for BChE/ AChE.
Assay [7] is described as follows: NMS/OXO-M values are calculated from the ratio of the respective apparent Ki values.
Assay [8] deals with T4, Muscarinic acetylcholine receptor M2. The assay can be described thus: biochemical. This is another data set of the same source.
Description: Compound was evaluated for the competitive inhibition of [3H]methylscopolamine binding to Muscarinic acetylcholine receptor M2 of mouse cerebral cortex
Assay [9] deals with T2, Muscarinic acetylcholine receptor M1. The assay can be described thus: biochemical. The source holds these as a separate data set.
Description: Compound was evaluated for the competitive inhibition of [3H]pirenzepine binding to Muscarinic acetylcholine receptor M1 of mouse cerebral cortex
For assay [10], the target named is T3, Cholinesterase. The source holds these as a separate data set.
Description: The compound was evaluated for the inhibition human of Butyrylcholinesterase I
For assay [11], the species on record is Mus musculus.
Assay [12] addresses T1, Acetylcholinesterase. This is another data set of the same source.
Description: Inhibition of human acetylcholinesterase-I
Assay [13] is filed under the species Mus musculus. This is another data set of the same source.
Description: Compound was evaluated for the binding affinity by displacing [3H]methylscopolamine ([3H]-NMS) from mouse cerebral cortex tissue.
The species named for assay [14] is Rattus norvegicus. The assay can be described thus: Concentration required to potentiate the contraction of isolated rat ileum produced by 1*10e-7 M ACh by 20 percent; IA= inactive. The format is functional.
For assay [15], the target named is T5, Muscarinic acetylcholine receptor M2 (Mus musculus) (UniProt Q9ERZ4).
T5 sequence (whole entry): T4 sequence (Q9ERZ4 whole entry)
The assay can be described thus: Selectivity was defined as the ratio between M2-IC50/M1-IC50.

For assay [16], the species on record is Rattus norvegicus. The assay can be described thus: Concentration required to potentiate the contraction of isolated rat ileum produced by 1*10e-7 M ACh by 20 percent; IA=Inactive. Format: functional.

T1 sequence (P22303 whole entry): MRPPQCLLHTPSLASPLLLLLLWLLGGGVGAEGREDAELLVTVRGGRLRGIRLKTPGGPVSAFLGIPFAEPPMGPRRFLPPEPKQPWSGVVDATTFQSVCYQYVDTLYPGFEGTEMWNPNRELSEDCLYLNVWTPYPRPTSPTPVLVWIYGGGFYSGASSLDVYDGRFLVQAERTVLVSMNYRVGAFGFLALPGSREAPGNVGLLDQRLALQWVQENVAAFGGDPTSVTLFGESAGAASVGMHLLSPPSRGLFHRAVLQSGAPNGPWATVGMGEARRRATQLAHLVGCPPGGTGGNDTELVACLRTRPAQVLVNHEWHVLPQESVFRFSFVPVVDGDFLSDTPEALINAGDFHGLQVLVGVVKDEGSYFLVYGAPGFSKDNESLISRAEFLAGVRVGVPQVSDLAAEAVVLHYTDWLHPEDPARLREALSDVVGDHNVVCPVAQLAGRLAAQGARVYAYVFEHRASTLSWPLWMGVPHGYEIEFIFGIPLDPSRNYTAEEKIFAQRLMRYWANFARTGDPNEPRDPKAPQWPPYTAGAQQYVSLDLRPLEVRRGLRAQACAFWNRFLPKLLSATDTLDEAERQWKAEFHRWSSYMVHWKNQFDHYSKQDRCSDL

The IC50 is the concentration that inhibits the measured activity by half. `CN(C)Cc1ccc(CSCCNc2cc(NCCSCc3ccc(CN(C)C)o3)c([N+](=O)[O-])cc2[N+](=O)[O-])o1` registered an Ileal activity in the assay listed under Rattus norvegicus [1] of less than 0.05 µM. Moreover, the IC50 at Acetylcholinesterase [2] was 28 nM; in [3] it was 490 nM; on Cholinesterase [4], 25 nM; in assay [5] it was 590 nM. Besides, the Ratio on Cholinesterase [6] stood at 0.89.
The term Ki denotes a measure of affinity in units of concentration, obtained from inhibition or displacement. High values mean weaker binding, low ones tighter binding. Turning to `CN(C)Cc1ccc(CSCCCCSCc2ccc(CN(C)C)o2)o1`, in assay [7], the Ratio is 17. Further, the IC50 came to 2200 nM in [8], 630 nM in assay [9], 3100 nM on Cholinesterase [10] and 210 nM against Acetylcholinesterase [12]. Further, the Ki in the assay filed under Mus musculus [11] amounted to 1200 nM; in the assay listed under Mus musculus [13] it was 20000 nM. The Ileal activity in the assay filed under Rattus norvegicus [1] was less than 1 µM.
On to `CN(C)Cc1ccc(CSCC/N=C/NCCSCc2ccc(CN(C)C)o2)o1`, for which half-maximal inhibition at Acetylcholinesterase [12] (IC50) required 3000 nM.
Compound `CNC(=O)Oc1ccc2c(c1)[C@]1(C)CCN(C)[C@@H]1N2C` [PHYSOSTIGMINE] registered an Ileal activity in the assay filed under Rattus norvegicus [1] of less than 0.005 µM. The results for the IC50 in [3] and in [5] were 37000 nM and 160000 nM, respectively.
Consider `CN(C)Cc1ccc(CSCCCCCCSCc2ccc(CN(C)C)o2)o1`, for which the IC50 in assay [8] came to 580 nM; in assay [9], 540 nM; on Cholinesterase [10], 2900 nM; against Acetylcholinesterase [12] it was 740 nM. Besides, the Ileal activity entry in the assay listed under Rattus norvegicus [14] is “inactive”.
For the compound `CN(C)Cc1ccc(CSCCCCCCCCSCc2ccc(CN(C)C)o2)o1`, the Ileal activity in the assay filed under Rattus norvegicus [1] was less than 0.1 µM. The IC50 on Acetylcholinesterase [2] is 470 nM; in assay [3], 310 nM; on Cholinesterase [4], 1900 nM; in assay [5] it was 540 nM. In addition, the Ratio on Cholinesterase [6] amounted to 4; in assay [15], 1.8.
`CN(C)Cc1ccc(CSCCCCCCCSCc2ccc(CN(C)C)o2)o1`: the 50% inhibitory concentration (IC50) against Acetylcholinesterase [2] stood at 610 nM; in assay [3] it was 410 nM; on Cholinesterase [4] it was 1900 nM; in assay [5] it was 710 nM. In addition, the Ileal activity result in the assay listed under Rattus norvegicus [16] was “inactive”. The Ratio at Cholinesterase [6] was found to be 3.1; in assay [15], 1.7.
Take `CN(C)Cc1ccc(CSCc2cccc(CSCc3ccc(CN(C)C)o3)c2)o1`: on Acetylcholinesterase [12], half-maximal inhibition (IC50) was put at 1500 nM. This lies in the single-digit micromolar range.
For the compound `CN(C)Cc1ccc(CSCCCCCCCCCSCc2ccc(CN(C)C)o2)o1`, the Ileal activity in the assay filed under Rattus norvegicus [1] was less than 0.1 µM. For the same compound, the IC50 came out at 460 nM on Acetylcholinesterase [2], 560 nM in assay [3], 1000 nM against Cholinesterase [4] and 400 nM in assay [5]. Moreover, the Ratio at Cholinesterase [6] was found to be 2.2; in assay [15], 0.71.
As for `CN(C)Cc1ccc(CSCc2ccc(-c3ccc(CSCc4ccc(CN(C)C)o4)cc3)cc2)o1`, the half-maximal inhibitory concentration (IC50) in assay [8] came to 1600 nM; in assay [9] it was 680 nM; against Cholinesterase [10], 1300 nM; against Acetylcholinesterase [12] it was 180 nM. The compound also yielded an Ileal activity in the assay filed under Rattus norvegicus [1] of less than 0.01 µM.
On Acetylcholinesterase [2], `CN(C)Cc1ccc(CSCCCCCCCCCCSCc2ccc(CN(C)C)o2)o1` returned an IC50 of 1300 nM. In other words, the single-digit micromolar range.
In the case of `CN(C)Cc1ccc(CSCCCCCSCc2ccc(CN(C)C)o2)o1`, the concentration for half-maximal inhibition (IC50) in assay [8] amounted to 520 nM; in assay [9], 810 nM; at Cholinesterase [10] it was 3600 nM; on Acetylcholinesterase [12] it was 900 nM. Further, the Ileal activity in the assay listed under Rattus norvegicus [1] was less than 0.1 µM.
Turning to `CN(C)Cc1ccc(CSCc2ccc(CSCc3ccc(CN(C)C)o3)cc2)o1`, the IC50 in [8] was 550 nM; in assay [9] it was 540 nM; on Cholinesterase [10], 2700 nM; against Acetylcholinesterase [12] it was 260 nM. For the same compound, the Ileal activity result in the assay listed under Rattus norvegicus [14] is “inactive”.
As to `CN(C)Cc1ccc(CSCCSCc2ccc(CN(C)C)o2)o1`, the IC50 in [8] came out at 1400 nM; in assay [9], 1100 nM; on Cholinesterase [10] it was 4300 nM; against Acetylcholinesterase [12], 500 nM. In the assay listed under Rattus norvegicus [1], this compound displayed an Ileal activity of less than 0.1 µM.
For `CN(C)Cc1ccc(CSCCCSCc2ccc(CN(C)C)o2)o1`, in that order: 1500 nM, 1100 nM, 4100 nM, 330 nM and less than 0.1 µM.
For `CN(C)Cc1ccc(CSCc2ccc(CN(C)C)o2)o1`, inhibition at Acetylcholinesterase [12] was half-maximal at 44000 nM (IC50).
Still for that read-out and setting: under `CN(C)Cc1ccc(CSCCNC(=O)NCCSCc2ccc(CN(C)C)o2)o1` stands 48000 nM.
In the assay filed under Rattus norvegicus [1], `CN(C)Cc1ccc(CSCCN/C=C(/NCCSCc2ccc(CN(C)C)o2)[N+](=O)[O-])o1` showed an Ileal activity of less than 0.1 µM. The IC50 against Acetylcholinesterase [2] stood at 74 nM; in [3], 900 nM; on Cholinesterase [4], 1300 nM; in assay [5], 500 nM. Besides, the Ratio at Cholinesterase [6] was 18; in [15] it was 0.55.
`CN(C)Cc1ccc(CSCCNC(=NC#N)NCCSCc2ccc(CN(C)C)o2)o1`: the half-maximal inhibitory concentration (IC50) in [8] turned out to be 470 nM; in assay [9] it was 660 nM; on Cholinesterase [10], 2400 nM; against Acetylcholinesterase [12], 290 nM. Also, the Ileal activity in the assay listed under Rattus norvegicus [1] is less than 0.01 µM.
`CN(C)Cc1ccc(CSCc2ccccc2CSCc2ccc(CN(C)C)o2)o1` displayed a half-maximal inhibitory concentration (IC50) at Acetylcholinesterase [12] of 9000 nM.
